A short description of data set [1]: Binding affinity to New Zealand White rabbit thrombin assessed as release of p-nitroaniline after 10 to 120 mins by spectrophotometric analysis. Also noted: species or system Oryctolagus cuniculus.
The target in data set [2] is T1, Coagulation factor VII (Homo sapiens, UniProt P08709).
T1 sequence (P08709 whole entry): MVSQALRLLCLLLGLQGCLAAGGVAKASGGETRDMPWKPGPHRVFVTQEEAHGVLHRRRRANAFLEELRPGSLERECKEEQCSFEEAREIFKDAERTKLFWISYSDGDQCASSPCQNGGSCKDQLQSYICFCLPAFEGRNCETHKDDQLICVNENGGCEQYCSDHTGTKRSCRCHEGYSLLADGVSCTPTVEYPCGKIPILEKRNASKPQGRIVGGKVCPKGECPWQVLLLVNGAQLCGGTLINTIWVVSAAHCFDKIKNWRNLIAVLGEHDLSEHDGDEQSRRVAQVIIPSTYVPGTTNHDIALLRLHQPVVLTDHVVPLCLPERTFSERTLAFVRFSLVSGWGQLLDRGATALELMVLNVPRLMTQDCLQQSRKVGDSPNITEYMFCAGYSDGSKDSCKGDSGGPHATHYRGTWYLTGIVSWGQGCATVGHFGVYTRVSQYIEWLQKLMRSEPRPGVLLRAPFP
Description: Binding affinity to human factor 7a assessed as release of p-nitroaniline after 10 to 120 mins by spectrophotometric analysis.

Data set [3] deals with Tissue-type plasminogen activator (Homo sapiens, UniProt P00750). Nature of the data set: Binding affinity to human tPA assessed as release of p-nitroaniline after 10 to 120 mins by spectrophotometric analysis.
The target of data set [4] is Plasma kallikrein (Homo sapiens, UniProt P03952). Description: Binding affinity to human plasma kallikrein assessed as release of p-nitroaniline after 10 to 120 mins by spectrophotometric analysis.
A short description of data set [5]: Binding affinity to human chymotrypsin assessed as release of p-nitroaniline after 10 to 120 mins by spectrophotometric analysis.
Data set [6] addresses T2, Coagulation factor X (Oryctolagus cuniculus, UniProt O19045).
T2 sequence (O19045 whole entry): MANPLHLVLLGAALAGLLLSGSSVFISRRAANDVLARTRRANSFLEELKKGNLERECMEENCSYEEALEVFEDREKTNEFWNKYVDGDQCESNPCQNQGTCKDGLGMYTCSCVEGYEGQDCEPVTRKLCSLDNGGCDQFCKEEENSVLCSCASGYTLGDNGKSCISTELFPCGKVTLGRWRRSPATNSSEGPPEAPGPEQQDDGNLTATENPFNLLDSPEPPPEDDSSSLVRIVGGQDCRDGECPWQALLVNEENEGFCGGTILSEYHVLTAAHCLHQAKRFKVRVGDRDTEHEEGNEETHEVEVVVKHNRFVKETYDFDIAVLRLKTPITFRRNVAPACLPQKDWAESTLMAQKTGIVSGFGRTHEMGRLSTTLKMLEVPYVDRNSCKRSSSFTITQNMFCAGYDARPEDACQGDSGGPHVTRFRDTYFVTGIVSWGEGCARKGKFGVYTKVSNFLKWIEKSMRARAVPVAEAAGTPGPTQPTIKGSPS
Description: Binding affinity to New Zealand White rabbit factor 10a assessed as release of p-nitroaniline after 10 to 120 mins by spectrophotometric analysis.

Data set [7] concerns Plasma. Description: Anticoagulant activity in human plasma assessed as concentration required to double activated partial thromboplastin time. It is filed as functional.
Data set [8] addresses Urokinase-type plasminogen activator (Homo sapiens, UniProt P00749). Description: Binding affinity to human urokinase assessed as release of p-nitroaniline after 10 to 120 mins by spectrophotometric analysis.
Data set [9] has as its target Coagulation factor IX (Homo sapiens, UniProt P00740). Description: Binding affinity to human factor 9a assessed as release of p-nitroaniline after 10 to 120 mins by spectrophotometric analysis.
The nature of data set [10]: Binding affinity to New Zealand White rabbit plasma kallikrein assessed as release of p-nitroaniline after 10 to 120 mins by spectrophotometric analysis. It counts as cell-free, Oryctolagus cuniculus.
Data set [11] has as its target Coagulation factor XI (Homo sapiens, UniProt P03951). Description: Binding affinity to human factor 11a assessed as release of p-nitroaniline after 10 to 120 mins by spectrophotometric analysis.
The target in data set [12] is Plasminogen (Homo sapiens, UniProt P00747). Description: Binding affinity to human plasmin assessed as release of p-nitroaniline after 10 to 120 mins by spectrophotometric analysis.
Data set [13] concerns the target Prothrombin (Homo sapiens, UniProt P00734). Nature of the data set: Binding affinity to human thrombin assessed as release of p-nitroaniline after 10 to 120 mins by spectrophotometric analysis.
The subject of data set [14] is Plasma. Nature of the data set: Anticoagulant activity in New Zealand White rabbit plasma assessed as concentration required to double activated partial thromboplastin time. It counts as functional, Oryctolagus cuniculus.
For data set [15], the system named is Plasma. Description: Anticoagulant activity in human plasma assessed as concentration required to inhibit double prothrombin time. It is filed as functional.
In data set [16] the target is Vitamin K-dependent protein C (Homo sapiens, UniProt P04070). Description: Binding affinity to human activated protein C assessed as release of p-nitroaniline after 10 to 120 mins by spectrophotometric analysis.
Data set [17] deals with Oryctolagus cuniculus. Nature of the data set: Toxicity in rabbit arteriovenous-shunt thrombosis model assessed as increase in bleeding time compound administered as single bolus dose followed by five continuous infusion dose. It counts as organism-based. The settings on record: in vivo, iv.
The subject of data set [18] is Oryctolagus cuniculus. Description: Antithrombotic activity in rabbit arteriovenous-shunt thrombosis model assessed as inhibition of clot formation compound administered as single bolus dose followed by five continuous infusion dose. It is filed as functional.
Data set [19] is described as follows: Binding affinity to New Zealand White rabbit factor 7a assessed as release of p-nitroaniline after 10 to 120 mins by spectrophotometric analysis. Also noted: species or system Oryctolagus cuniculus.
Data set [20] in a line: Binding affinity to New Zealand White rabbit factor 11a assessed as release of p-nitroaniline after 10 to 120 mins by spectrophotometric analysis. On the set-up: species or system Oryctolagus cuniculus.
Data set [21] deals with Trypsin (Homo sapiens, UniProt P07477+P07478+P35030). Description: Binding affinity to human trypsin assessed as release of p-nitroaniline after 10 to 120 mins by spectrophotometric analysis. It counts as protein assay.
Data set [22] has as its target Coagulation factor X (Homo sapiens, UniProt P00742). Nature of the data set: Binding affinity to human factor 10a assessed as release of p-nitroaniline after 10 to 120 mins by spectrophotometric analysis.

Sequence of Coagulation factor XI (P03951 19-387 limits assumed): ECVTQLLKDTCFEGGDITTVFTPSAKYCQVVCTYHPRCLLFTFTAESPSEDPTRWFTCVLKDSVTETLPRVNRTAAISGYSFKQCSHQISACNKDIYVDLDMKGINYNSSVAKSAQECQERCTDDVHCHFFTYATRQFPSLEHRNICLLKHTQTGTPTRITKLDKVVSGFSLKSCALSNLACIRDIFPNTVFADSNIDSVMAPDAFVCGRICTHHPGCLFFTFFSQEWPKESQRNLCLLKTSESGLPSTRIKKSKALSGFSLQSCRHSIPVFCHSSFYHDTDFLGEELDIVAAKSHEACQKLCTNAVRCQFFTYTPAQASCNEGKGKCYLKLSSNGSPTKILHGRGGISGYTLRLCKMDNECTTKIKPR
Sequence of Coagulation factor XI (P03951 388-625 limits assumed): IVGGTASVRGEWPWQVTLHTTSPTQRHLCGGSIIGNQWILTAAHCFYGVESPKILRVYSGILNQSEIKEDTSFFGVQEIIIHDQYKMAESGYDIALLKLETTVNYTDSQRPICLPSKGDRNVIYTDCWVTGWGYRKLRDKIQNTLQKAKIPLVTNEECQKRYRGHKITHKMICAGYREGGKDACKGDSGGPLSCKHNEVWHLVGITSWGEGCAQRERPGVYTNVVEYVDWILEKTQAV
Sequence of Coagulation factor IX (P00740 47-191 limits assumed): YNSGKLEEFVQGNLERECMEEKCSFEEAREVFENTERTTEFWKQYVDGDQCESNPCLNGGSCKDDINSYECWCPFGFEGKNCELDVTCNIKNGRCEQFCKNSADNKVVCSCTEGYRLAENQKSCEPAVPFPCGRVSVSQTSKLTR
Sequence of Coagulation factor IX (P00740 227-461 limits assumed): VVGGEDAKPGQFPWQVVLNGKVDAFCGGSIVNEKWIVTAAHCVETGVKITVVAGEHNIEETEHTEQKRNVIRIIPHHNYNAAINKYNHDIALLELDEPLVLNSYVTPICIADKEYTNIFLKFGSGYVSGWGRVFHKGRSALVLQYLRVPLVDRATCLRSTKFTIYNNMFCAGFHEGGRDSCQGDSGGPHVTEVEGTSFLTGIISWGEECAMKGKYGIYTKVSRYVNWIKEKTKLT
Sequence of Plasminogen (P00747 97-580 limits assumed): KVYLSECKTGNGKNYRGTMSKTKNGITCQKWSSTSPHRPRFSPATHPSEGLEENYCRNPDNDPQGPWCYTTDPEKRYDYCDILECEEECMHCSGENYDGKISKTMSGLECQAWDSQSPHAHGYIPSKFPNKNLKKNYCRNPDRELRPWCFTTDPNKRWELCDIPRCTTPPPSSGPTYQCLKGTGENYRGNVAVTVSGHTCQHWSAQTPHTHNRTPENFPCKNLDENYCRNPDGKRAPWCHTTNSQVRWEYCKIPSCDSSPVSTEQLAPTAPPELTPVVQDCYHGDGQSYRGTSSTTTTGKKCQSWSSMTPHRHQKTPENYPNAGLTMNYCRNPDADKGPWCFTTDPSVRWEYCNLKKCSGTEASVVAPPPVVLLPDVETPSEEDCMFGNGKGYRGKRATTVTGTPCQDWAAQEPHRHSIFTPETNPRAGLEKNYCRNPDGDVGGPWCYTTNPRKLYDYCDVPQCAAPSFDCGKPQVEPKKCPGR
Sequence of Plasminogen (P00747 581-810 limits assumed): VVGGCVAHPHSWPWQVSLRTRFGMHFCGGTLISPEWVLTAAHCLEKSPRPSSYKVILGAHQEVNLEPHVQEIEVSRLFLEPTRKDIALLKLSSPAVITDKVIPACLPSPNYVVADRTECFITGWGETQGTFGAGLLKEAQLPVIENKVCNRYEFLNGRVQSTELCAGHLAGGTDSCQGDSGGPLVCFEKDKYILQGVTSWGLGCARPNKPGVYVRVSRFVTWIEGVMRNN
Sequence of Tissue-type plasminogen activator (P00750 whole entry): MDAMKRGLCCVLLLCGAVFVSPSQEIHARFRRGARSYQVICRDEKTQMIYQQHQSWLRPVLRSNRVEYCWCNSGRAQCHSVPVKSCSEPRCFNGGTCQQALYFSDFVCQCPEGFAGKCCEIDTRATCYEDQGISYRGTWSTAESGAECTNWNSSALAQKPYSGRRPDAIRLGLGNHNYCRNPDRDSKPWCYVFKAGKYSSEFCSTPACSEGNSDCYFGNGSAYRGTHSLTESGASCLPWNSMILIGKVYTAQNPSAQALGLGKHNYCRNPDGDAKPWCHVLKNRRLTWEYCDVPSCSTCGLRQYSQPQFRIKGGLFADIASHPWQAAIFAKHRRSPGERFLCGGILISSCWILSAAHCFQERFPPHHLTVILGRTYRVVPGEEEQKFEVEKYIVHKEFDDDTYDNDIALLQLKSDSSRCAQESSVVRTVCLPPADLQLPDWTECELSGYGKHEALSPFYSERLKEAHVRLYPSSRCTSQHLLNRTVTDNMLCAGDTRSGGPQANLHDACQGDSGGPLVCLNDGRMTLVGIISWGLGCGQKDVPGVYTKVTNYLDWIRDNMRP
Sequence of Coagulation factor X (Homo sapiens, UniProt P00742) (P00742 41-179 limits assumed): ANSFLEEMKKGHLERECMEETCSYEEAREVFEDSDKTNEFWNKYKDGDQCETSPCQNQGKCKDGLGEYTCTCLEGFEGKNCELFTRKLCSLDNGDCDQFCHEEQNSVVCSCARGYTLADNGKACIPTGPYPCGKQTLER
Sequence of Coagulation factor X (Homo sapiens, UniProt P00742) (P00742 235-488 limits assumed): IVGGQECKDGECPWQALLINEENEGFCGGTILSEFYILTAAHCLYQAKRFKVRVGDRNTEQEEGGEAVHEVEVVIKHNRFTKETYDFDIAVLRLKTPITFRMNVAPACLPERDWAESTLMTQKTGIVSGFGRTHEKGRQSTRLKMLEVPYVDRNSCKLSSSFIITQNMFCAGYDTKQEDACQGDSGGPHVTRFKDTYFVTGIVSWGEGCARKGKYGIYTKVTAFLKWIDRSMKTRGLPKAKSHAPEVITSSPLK
Sequence of Vitamin K-dependent protein C (P04070 43-197 limits assumed): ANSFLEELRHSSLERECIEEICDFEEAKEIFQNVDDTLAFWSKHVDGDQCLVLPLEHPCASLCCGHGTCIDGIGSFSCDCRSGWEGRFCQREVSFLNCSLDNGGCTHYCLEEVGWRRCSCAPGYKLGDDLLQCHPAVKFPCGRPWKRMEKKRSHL
Sequence of Vitamin K-dependent protein C (P04070 212-461 limits assumed): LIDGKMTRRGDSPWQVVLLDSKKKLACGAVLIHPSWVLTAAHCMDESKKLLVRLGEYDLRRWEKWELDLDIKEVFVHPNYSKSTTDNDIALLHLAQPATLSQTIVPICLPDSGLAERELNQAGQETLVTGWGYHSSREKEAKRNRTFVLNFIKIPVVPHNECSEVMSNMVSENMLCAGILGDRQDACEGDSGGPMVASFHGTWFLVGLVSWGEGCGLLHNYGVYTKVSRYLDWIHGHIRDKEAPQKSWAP
Sequence of Plasma kallikrein (P03952 20-390 limits assumed): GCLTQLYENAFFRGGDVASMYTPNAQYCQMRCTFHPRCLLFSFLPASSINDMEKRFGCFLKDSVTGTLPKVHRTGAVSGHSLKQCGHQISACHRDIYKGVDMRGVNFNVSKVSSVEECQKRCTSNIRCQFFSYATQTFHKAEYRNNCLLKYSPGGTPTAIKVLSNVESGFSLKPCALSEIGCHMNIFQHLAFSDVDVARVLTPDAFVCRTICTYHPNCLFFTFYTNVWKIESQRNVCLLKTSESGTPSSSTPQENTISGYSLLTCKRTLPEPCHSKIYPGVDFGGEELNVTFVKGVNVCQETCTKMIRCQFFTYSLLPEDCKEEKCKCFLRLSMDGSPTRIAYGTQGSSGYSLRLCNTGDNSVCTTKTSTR
Sequence of Plasma kallikrein (P03952 391-638 limits assumed): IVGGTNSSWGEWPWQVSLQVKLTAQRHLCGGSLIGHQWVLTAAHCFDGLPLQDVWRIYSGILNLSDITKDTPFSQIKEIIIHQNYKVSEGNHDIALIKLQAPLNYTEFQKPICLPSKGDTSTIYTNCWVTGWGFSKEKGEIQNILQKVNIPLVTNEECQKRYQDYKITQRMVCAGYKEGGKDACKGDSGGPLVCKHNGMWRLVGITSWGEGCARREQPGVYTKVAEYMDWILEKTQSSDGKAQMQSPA

In the case of `CC(C)CC(=O)Nc1cc(-c2ccc(C(N)=O)cc2C(=O)O)cc(C2CC(C)(c3ccccc3)c3cc(C(=N)N)ccc3N2)c1` (single isomer, unassigned; enantiomer 2), the Ki in data set [1] came out at 7900 nM; in data set [2], 629 nM; in data set [3] it was 1700 nM; in data set [4], 4.6 nM; in [5] it was 14000 nM; in data set [6], 3200 nM. Besides, the Ki in data set [8] was 2100 nM; in [9], > 20000 nM; in data set [10], 4.6 nM; in data set [11], 0.2 nM; in data set [12], 910 nM; in data set [13], 12600 nM. Moreover, the Ki came to 73 nM in data set [16]; 200 nM in data set [19]; 0.42 nM in data set [20]; 740 nM in [21]; 340 nM in data set [22]. Besides, the EC in data set [7] was found to be 2.2 µM; in [14] it was 2400 nM. The IC in data set [15] was >20 µM. The Activity result in data set [17] was “Non-toxic”. Besides, in [18], the ID50 amounted to 0.95 mg/kg/h.

Usually Ki stands for a dissociation constant, usually derived from enzyme kinetics or from competition with a known ligand.

The values above are taken from ChEMBL document CHEMBL3124891, “Tetrahydroquinoline derivatives as potent and selective factor XIa inhibitors” (J Med Chem, 2014).
